In brackets after ≈: the same amount, converted by molar mass.
Tested on: N. gonorrhoeae clinical isolates
Test: MIC, agar dilution (CLSI)
Type: cell-based, Neisseria gonorrhoeae

SMILES: CC1(C)S[C@@H]2[C@H](NC(=O)Cc3ccccc3)C(=O)N2[C@H]1C(=O)O [Pen, penicillin]
- MIC50 (96 clinical isolates): 1 µg/mL (≈ 2.99 µM)
- MIC90 (96 clinical isolates): 2 µg/mL (≈ 5.98 µM)
- MIC range (96 clinical isolates): <0.008 to 4 µg/mL
- MIC (strain CDC1 (GCREF2012 016)): 1 µg/mL (≈ 2.99 µM)
- MIC (strain CDC2 (GCREF2012 045)): 1 µg/mL (≈ 2.99 µM)
- MIC (strain CDC3 (GCREF2013 013)): 1 µg/mL (≈ 2.99 µM)
- MIC (strain CDC4 (GCREF2013 030)): 1 µg/mL (≈ 2.99 µM)
- MIC (strain CDC5 (GCREF2012 001)): 1 µg/mL (≈ 2.99 µM)
- MIC (strain CDC6 (GCREF2012 002)): 1 µg/mL (≈ 2.99 µM)
- MIC (strain CDC8 (GCREF2012 004)): 0.25 µg/mL (≈ 0.748 µM)
- MIC (strain CDC9 (GCREF2012 005)): 1 µg/mL (≈ 2.99 µM)
- MIC (strain CDC10 (GCREF2012 006)): 1 µg/mL (≈ 2.99 µM)
- MIC (strain CDC11 (GCREF2012 007)): 1 µg/mL (≈ 2.99 µM)
- MIC (strain CDC12 (GCREF2012 008)): 1 µg/mL (≈ 2.99 µM)
- MIC (strain CDC13 (GCREF2012 009)): 1 µg/mL (≈ 2.99 µM)
- MIC (strain CDC14 (GCREF2012 010)): 1 µg/mL (≈ 2.99 µM)
- MIC (strain CDC15 (GCREF2012 011)): 0.125 µg/mL (≈ 0.374 µM)
- MIC (strain CDC16 (GCREF2012 012)): 2 µg/mL (≈ 5.98 µM)
- MIC (strain CDC18 (GCREF2012 014)): 1 µg/mL (≈ 2.99 µM)
- MIC (strain CDC19 (GCREF2012 015)): 0.25 µg/mL (≈ 0.748 µM)
- MIC (strain CDC20 (GCREF2012 017)): 0.125 µg/mL (≈ 0.374 µM)
- MIC (strain CDC21 (GCREF2012 018)): 1 µg/mL (≈ 2.99 µM)
- MIC (strain CDC22 (GCREF2012 019)): 0.25 µg/mL (≈ 0.748 µM)
- MIC (strain CDC23 (GCREF2012 020)): 1 µg/mL (≈ 2.99 µM)
- MIC (strain CDC24 (GCREF2012 021)): 1 µg/mL (≈ 2.99 µM)
- MIC (strain CDC25 (GCREF2012 022)): 2 µg/mL (≈ 5.98 µM)
- MIC (strain CDC26 (GCREF2012 023)): 0.25 µg/mL (≈ 0.748 µM)
- MIC (strain CDC27 (GCREF2012 024)): 1 µg/mL (≈ 2.99 µM)
- MIC (strain CDC28 (GCREF2012 025)): 1 µg/mL (≈ 2.99 µM)
- MIC (strain CDC29 (GCREF2012 026)): 1 µg/mL (≈ 2.99 µM)
- MIC (strain CDC30 (GCREF2012 027)): 1 µg/mL (≈ 2.99 µM)
- MIC (strain CDC31 (GCREF2012 028)): 2 µg/mL (≈ 5.98 µM)
- MIC (strain CDC32 (GCREF2012 029)): 1 µg/mL (≈ 2.99 µM)
- MIC (strain CDC33 (GCREF2012 030)): 1 µg/mL (≈ 2.99 µM)
- MIC (strain CDC34 (GCREF2012 031)): 1 µg/mL (≈ 2.99 µM)
- MIC (strain CDC35 (GCREF2012 032)): 2 µg/mL (≈ 5.98 µM)
- MIC (strain CDC36 (GCREF2012 033)): 0.25 µg/mL (≈ 0.748 µM)
- MIC (strain CDC37 (GCREF2012 034)): 1 µg/mL (≈ 2.99 µM)
- MIC (strain CDC38 (GCREF2012 035)): 1 µg/mL (≈ 2.99 µM)
- MIC (strain CDC39 (GCREF2012 036)): 2 µg/mL (≈ 5.98 µM)
- MIC (strain CDC40 (GCREF2012 037)): 1 µg/mL (≈ 2.99 µM)
- MIC (strain CDC41 (GCREF2012 038)): 2 µg/mL (≈ 5.98 µM)
- MIC (strain CDC42 (GCREF2012 039)): 2 µg/mL (≈ 5.98 µM)
- MIC (strain CDC43 (GCREF2012 040)): 2 µg/mL (≈ 5.98 µM)
- MIC (strain CDC45 (GCREF2012 042)): 2 µg/mL (≈ 5.98 µM)
- MIC (strain CDC46 (GCREF2012 043)): 1 µg/mL (≈ 2.99 µM)
- MIC (strain CDC47 (GCREF2012 044)): 1 µg/mL (≈ 2.99 µM)
- MIC (strain CDC48 (GCREF2012 046)): 1 µg/mL (≈ 2.99 µM)
- MIC (strain CDC49 (GCREF2012 047)): 2 µg/mL (≈ 5.98 µM)
- MIC (strain CDC50 (GCREF2012 048)): 2 µg/mL (≈ 5.98 µM)
- MIC (strain CDC51 (GCREF2012 049)): 2 µg/mL (≈ 5.98 µM)
- MIC (strain CDC52 (GCREF2012 050)): 2 µg/mL (≈ 5.98 µM)
- MIC (strain CDC53 (GCREF2012 051)): 2 µg/mL (≈ 5.98 µM)
- MIC (strain CDC54 (GCREF2012 052)): 2 µg/mL (≈ 5.98 µM)
- MIC (strain CDC55 (GCREF2013 001)): 1 µg/mL (≈ 2.99 µM)
- MIC (strain CDC56 (GCREF2013 002)): 1 µg/mL (≈ 2.99 µM)
- MIC (strain CDC57 (GCREF2013 003)): 1 µg/mL (≈ 2.99 µM)
- MIC (strain CDC58 (GCREF2013 004)): 2 µg/mL (≈ 5.98 µM)
- MIC (strain CDC59 (GCREF2013 044)): 2 µg/mL (≈ 5.98 µM)
- MIC (strain CDC60 (GCREF2013 005)): 4 µg/mL (≈ 12 µM)
- MIC (strain CDC61 (GCREF2013 006)): 4 µg/mL (≈ 12 µM)
- MIC (strain CDC62 (GCREF2013 007)): 0.25 µg/mL (≈ 0.748 µM)
- MIC (strain CDC64 (GCREF2013 009)): 0.5 µg/mL (≈ 1.5 µM)
- MIC (strain CDC65 (GCREF2013 010)): 0.5 µg/mL (≈ 1.5 µM)
- MIC (strain CDC66 (GCREF2013 011)): 0.25 µg/mL (≈ 0.748 µM)
- MIC (strain CDC67 (GCREF2013 014)): 0.5 µg/mL (≈ 1.5 µM)
- MIC (strain CDC68 (GCREF2013 016)): 1 µg/mL (≈ 2.99 µM)
- MIC (strain CDC69 (GCREF2013 017)): 1 µg/mL (≈ 2.99 µM)
- MIC (strain CDC70 (GCREF2013 018)): 2 µg/mL (≈ 5.98 µM)
- MIC (strain CDC71 (GCREF2013 019)): 0.25 µg/mL (≈ 0.748 µM)
- MIC (strain CDC72 (GCREF2013 020)): 2 µg/mL (≈ 5.98 µM)
- MIC (strain CDC73 (GCREF2013 021)): 0.5 µg/mL (≈ 1.5 µM)
- MIC (strain CDC74 (GCREF2013 022)): 0.25 µg/mL (≈ 0.748 µM)
- MIC (strain CDC75 (GCREF2013 023)): 0.5 µg/mL (≈ 1.5 µM)
- MIC (strain CDC76 (GCREF2013 024)): 0.5 µg/mL (≈ 1.5 µM)
- MIC (strain CDC77 (GCREF2013 025)): 0.125 µg/mL (≈ 0.374 µM)
- MIC (strain CDC78 (GCREF2013 026)): 0.5 µg/mL (≈ 1.5 µM)
- MIC (strain CDC79 (GCREF2013 027)): 1 µg/mL (≈ 2.99 µM)
- MIC (strain CDC80 (GCREF2013 028)): 2 µg/mL (≈ 5.98 µM)
- MIC (strain CDC81 (GCREF2013 029)): 2 µg/mL (≈ 5.98 µM)
- MIC (strain CDC82 (GCREF2013 031)): 1 µg/mL (≈ 2.99 µM)
- MIC (strain CDC83 (GCREF2013 032)): 0.25 µg/mL (≈ 0.748 µM)
- MIC (strain CDC84 (GCREF2013 033)): 0.25 µg/mL (≈ 0.748 µM)
- MIC (strain CDC87 (GCREF2013 036)): 2 µg/mL (≈ 5.98 µM)
- MIC (strain CDC88 (GCREF2013 037)): 2 µg/mL (≈ 5.98 µM)
- MIC (strain CDC89 (GCREF2013 038)): 1 µg/mL (≈ 2.99 µM)
- MIC (strain CDC90 (GCREF2013 039)): 2 µg/mL (≈ 5.98 µM)
- MIC (strain CDC91 (GCREF2013 040)): 2 µg/mL (≈ 5.98 µM)
- MIC (strain CDC92 (GCREF2013 041)): 2 µg/mL (≈ 5.98 µM)
- MIC (strain CDC93 (GCREF2013 042)): 1 µg/mL (≈ 2.99 µM)
- MIC (strain CDC94 (GCREF2013 043)): 0.25 µg/mL (≈ 0.748 µM)
- MIC (strain CDC95 (GCREF2013 045)): 2 µg/mL (≈ 5.98 µM)
- MIC (strain CDC96 (GCREF2013 046)): 1 µg/mL (≈ 2.99 µM)
- MIC (strain CDC97 (GCREF2013 047)): 1 µg/mL (≈ 2.99 µM)
- MIC (strain CDC98 (GCREF2013 048)): 0.25 µg/mL (≈ 0.748 µM)
- MIC (strain CDC99 (GCREF2013 012)): 0.25 µg/mL (≈ 0.748 µM)
- MIC (strain CDC100 (GCREF2013 015)): 1 µg/mL (≈ 2.99 µM)

From paper PMC9487510, “A Novel Oral GyrB/ParE Dual Binding Inhibitor Effective against Multidrug-Resistant Neisseria gonorrhoeae and Other High-Threat Pathogens” (Antimicrobial Agents and Chemotherapy, 2022)
